According to patent publication US20140141137A1, “Encapsulated Antimicrobial Material” (Danisco A/S, priority 2012, published 2014):

Key:
yeast = assay: Leavening of bread dough containing natamycin; type: cell-based; details: 12 ppm on flour weight; about 50 minutes, 85% relative humidity, 40° C.
Description: (§1) A bread is made by preparing a dough containing flour, water, yeast, salt and a dough conditioner. Included in the dough mix is either natamycin or encapsulated natamycin or neither. […] All ingredients are mixed together thoroughly for between 3 and 10 minutes.
The dough is then given a short resting period after mixing (approx. 5 to 10 minutes) followed by scaling at the required weight. A second rest period is then applied following a second moulding in shape the dough as desired. The dough is then placed into a tin or tray. A leavening period for about 50 minutes at 85% relative humidity at 40° C. then follows.

moulds = assay: Mould spoilage of sliced bread over shelf life; type: cell-based; details: 12 ppm on flour weight; normal shelf life period
Description: as §1
When the bread is cool, the natamycin content in the bread is assayed. The natamycin content from bread containing encapsulated natamycin is higher than that in the bread containing unencapsulated natamycin, indicating the heat protective benefit of encapsulated natamycin. The bread is then sliced and observed over the normal shelf life period for growth of moulds.

[1] = tested on: common food spoilage yeasts and moulds; details: cited from earlier work
[2] = reportedly; or more; cited from earlier work
[3] = Davies et al. 1998; cited from earlier work

| Compound | Leavening of bread dough (yeast) | Mould spoilage / extension of shelf life of sliced bread (moulds) | Concentrations inhibiting most strains [1] | Effective levels to preserve foodstuffs [2] | pH of optimum stability [3] |
| --- | --- | --- | --- | --- | --- |
| C[C@@H]1C/C=C/C=C/C=C/C=C/[C@H](O[C@@H]2O[C@H](C)[C@@H](O)[C@H](N)[C@@H]2O)C[C@@H]2O[C@](O)(C[C@@H](O)C[C@H]3O[C@@H]3/C=C/C(=O)O1)C[C@H](O)[C@H]2C(=O)O [natamycin] | poor leavening | Delay of mould spoilage is observed | 1-15 ppm | – | – |
| nisin (ITSISLCTPGCKTGALMGCNMKTATCHCSIHVSK; Lantibiotic nisin-A; UniProt P13068 24-57, looked up) [polypeptide bacteriocin produced by the lactic acid bacteria, Lactococcus lactis subsp. lactis] | – | – | – | 25-500 IU/g | 3 |
